{"source": "patent US20200032249A1", "about": "“LABELING, ISOLATION, & ANALYSIS OF RNA FROM RARE CELL POPULATIONS” (priority 2017, published 2020)", "key": {"[1]": {"system": "MDA231 cells expressing CD/UPRT in mouse lungs", "experiment": "Flura-seq of lung micrometastases, reads aligned to hybrid human-mouse genome", "assay_type": "in vivo", "method": "FIG. 3 a-g. Flura-tagging of mRNA in vivo. FIG. 3a—Schematic diagram of lung colonization xenograft assay used for evaluation of Flura-tagging/Flura-seq. Athymic mice were injected through the tail vein with 50,000 MDA231 cells expressing CD/UPRT and GFP-luciferase. Upon the development of detectable bioluminescent lung metastases (4 weeks), mice were treated with doxycycline to induce CD/UPRT expression and injected with 5-FC. Lungs were harvested, and Flura-tagged mRNAs were immunopurified. FIG. 3b—Comparison of signal-to-noise ratio of Flura-tagging and TU-tagging in vivo. Mice were injected with either 5-FC or TU, the Flura-tagged or TU-tagged mRNAs were purified 12 h post injection, and the relative fold enrichment of representative human housekeeping genes relative to representative murine housekeeping genes (mHPRT1, mLDH1, mPGK1 and mGAPDH), normalized to their corresponding unpurified inputs, were measured by RT-PCR (n=5, ±S.E.). FIG. 3c—Quantification of the number of human cells in the mouse lungs used for Flura-tagging. Half of the mouse lungs used for Flura-tagging in FIG. 3b was dissociated into single cells, and the number of RFP+ cells was quantified using flow cytometry. The total number of MDA231 cells per lung was estimated based on an assumption of 1.5×10^8 cells per mouse lung (20) (n=5). […] RNA reads were aligned to a hybrid genome containing the human and mouse genomes. […]"}, "[2]": {"system": "MDA231 cells", "experiment": "stress granule formation by G3BP immunostaining", "assay_type": "cell-based", "conditions": "for treatment time after which cells started to form stress granules: human", "method": "FIG. 2a-b. Flura-tagging has minimal cytotoxicity. FIG. 2a—Effect of Flura-tagging on stress granule formation. MDA231 cells were treated with 5-FC for the indicated times, and the formation of stress granules was detected by G3BP immunostaining. Control cells were either treated with water or sodium arsenite (Arsenite) for one hour. Arrows indicate stress granules (n=3). Scale bar=20 μM. FIG. 2b—Effect of Flura-tagging on transcription. RNA expression in control cells was compared to CD/UPRT-expressing cells treated with the indicated concentrations of 5-FC for 4 h or 12 h. Each dot represents a gene, with the outer/lighter gray dots indicating genes showing more than 2-fold differential expression, as determined by DESeq2 (n=2). The dotted line represents the four-fold cutoff mark.\n5-FU is extensively used as a chemotherapeutic agent for the treatment of solid tumors, based on its ability to induce cancer cell death by inhibiting thymidylate synthase and by causing DNA and RNA damage (12-14). It was therefore crucial to test whether our 5-FU-tagging method, which is based on low concentrations of 5-FC and short incubation time periods, has significant cytotoxic effects under our experimental conditions. CD/UPRT-expressing cells were treated with 5-FC at concentrations of up to 250 μM for up to 12 h (“Flura-tagged” cells), and the effects of this treatment on RNA damage response and transcriptional regulation were investigated.\nA key feature of the RNA damage response is the formation of stress granules (15). Ras GTPase-activating protein-binding protein 1 (G3BP), a key component of stress granules, forms distinct foci during stress granule formation (12). We determined the dose- and time-dependent effect of 5-FC treatment on stress granule formation by immunostaining of the cells with anti-G3BP antibody. […] The 5-FC-treated cells started to form stress granules only after 24 h of treatment with 1 mM 5-FC, a concentration four times higher than the maximal concentration of 5-FC used for Flura-tagging, or after 48 h of 5-FC treatment at lower concentrations (FIG. 2a).\nHuman embryonic kidney transformed with […] (293T) and human breast cancer MDA-MB-231 (MDA231) cells were cultured in DMEM High Glucose medium (Wheaton) supplemented with 10% Fetal Bovine Serum (Clontech, Catalog number 631106) supplemented with 2 mM L-Glutamine. All cell lines have been routinely tested for mycoplasma contamination. For the induction of CD or CD and UPRT, cells were treated with 1 μg/ml doxycycline for 24 h. For Fluorouracil tagging, cells were treated with 250 μM of 5-FC or 5-FU unless indicated. Where indicated, 125 μM thymine was added together with 5-FC. […]"}}}
{"smiles": "Nc1nc(=O)[nH]cc1F", "note": "[5-FC, 5-fluorocytosine]", "values": [{"measurement": "aligned reads mapped to human genome", "setting": "[1]; mice treated for 4 h", "value": "approximately 53%"}, {"measurement": "aligned reads mapped to human genome", "setting": "[1]; mice treated for 12 h", "value": 74, "unit": "%"}, {"measurement": "stress granules after 12 h", "setting": "[2]", "value": "did not contain stress granules"}, {"measurement": "treatment time after which cells started to form stress granules", "setting": "[2]", "value": 48, "unit": "h"}, {"measurement": "treatment time after which cells started to form stress granules", "setting": "[2]; 1 mM", "value": 24, "unit": "h"}]}
